Values of other authors as cited in patent US6306900A, “Enteric coated pharmaceutical compositions” (priority 1996, dated 2001).

How the values were obtained:
[1] = W. A. Lee et al
[2] = in words
[3] = patients; origin not known

| Structure (SMILES) | bioavailability [1] [%] | known activity [2] | side-effects [3] |
| --- | --- | --- | --- |
| COc1c(C)c2c(c(O)c1C/C=C(\C)CCC(=O)O)C(=O)OC2 [MPA, Mycophenolic acid] | 43 | anti-tumor, anti-viral, immunosuppressive, anti-psoriatic, and anti-inflammatory activity | – |
| COc1c(C)c2c(c(O)c1C/C=C(\C)CCC(=O)OCCN1CCOCC1)C(=O)OC2 [MMF, mycophenolate mofetil] | 100 | – | gastro-intestinal side effects |
